# Key:
# VEEV TC83 = assay: microbe, parasite or virus in culture; format: cell-based; conditions: Venezuelan equine encephalitis virus, read-out: CPE EC50 (VEEV TC83)
# EEEV V105 = assay: microbe, parasite or virus in culture; format: cell-based, eastern equine encephalitis virus; conditions: for EC50: Eastern equine encephalitis virus, Vero 76, 48 h, read-out: EEEV V105 CPE EC50
# VEEV INH9813 [1] = test system: VEEV INH9813
# Mouse plasma stability = conditions: CD-1, mouse
# VEEV INH9813 [2] = assay: microbe, parasite or virus in culture; conditions: Venezuelan equine encephalitis virus, Vero 76, read-out: CPE EC50, VEEV and EEEV
smiles,measurement,setting,value
COc1ccc(N2C(=O)c3cc([N+](=O)[O-])ccc3N=C3C2N(C)CCN3C)cc1 (stereo not shown) [7a],EC50,VEEV TC83,41 nM
COc1ccc(N2C(=O)c3cc([N+](=O)[O-])ccc3N=C3C2N(C)CCN3C)cc1F (stereo not shown) [7b],EC50,EEEV V105,27 ± 3 nM
CN1CCN(C)C2C1=Nc1ccc([N+](=O)[O-])cc1C(=O)N2c1ccccc1 (stereo not shown) [7e],EC50,EEEV V105,59 ± 10 nM
COc1ccc(N2C(=O)c3cc(C#N)ccc3N=C3C2N(C)CCN3C)cc1 (stereo not shown) [7l],loss in antiviral activity for VEEV,VEEV INH9813 [1],100 fold
same,loss in antiviral activity for EEEV,EEEV V105,75 fold
COc1ccc(N2C(=O)c3cc(C#N)cc(-c4ccc(C)nc4)c3N=C3C2N(C)CCN3C)cc1F (stereo not shown) [7o],half-life,Mouse plasma stability,> 4.82 h
same,EC50,VEEV INH9813 [2],160 to 240 nM

# — PMC9014857 (ACS Medicinal Chemistry Letters, 2022)
